The text below walks through data of ChEMBL document CHEMBL1140731 (J Med Chem, 2008).

≈ marks a conversion by molar mass, not a printed value. Calls of active or inactive are those of the source. No cut-off for these calls is given here.

Series [1] deals with Transient receptor potential cation channel subfamily V member 1 (Homo sapiens, UniProt Q8NER1). Nature of the series: Blockade of human TRPV1 receptor assessed as inhibition of capsaicin-induced calcium flux. On the technique in general: Calcium flux is commonly read through the fluorescence of an indicator in the cells.
Series [2] can be described thus: Aqueous solubility at pH 1. Type of series: physicochemical. The settings on record: buffer.
Series [3] is described as follows: Aqueous solubility at pH 6.8. Type of series: physicochemical. The settings on record: buffer.
The nature of series [4]: Half life in rat at 10 umol/kg, iv administered in PEG400. Type of series: ADME, organism-based. The settings on record: in vivo.
A short description of series [5]: Volume of distribution beta in rat at 10 umol/kg, iv administered in PEG400. Type of series: ADME, organism-based. As to conditions: in vivo, read-out: Vbeta.
Series [6] is described as follows: Cmax in rat at 10 umol/kg, po administered in PEG400. It is filed as ADME, organism-based. On the set-up: dose 10 umol/kg, route oral. The settings on record: in vivo.
A short description of series [7]: Oral bioavailability in rat at 10 umol/kg administered in PEG400. As to conditions: in vivo. It is filed as ADME, organism-based.
The nature of series [8]: Half life in dog at 5 umol/kg, iv administered in PEG400. Type of series: ADME, organism-based, Canis lupus familiaris. The settings on record: in vivo.
Series [9] is described as follows: Volume of distribution beta in dog at 5 umol/kg, iv administered in PEG400. The settings on record: in vivo, read-out: Vbeta. Type of series: ADME, organism-based, Canis lupus familiaris.
A short description of series [10]: Half life in monkey at 5 umol/kg, iv administered in PEG400. As to conditions: rhesus monkey, in vivo. It is filed as ADME, organism-based, Macaca mulatta.
Series [11] is described as follows: Volume of distribution beta in monkey at 5 umol/kg, iv administered in PEG400. Type of series: ADME, organism-based, Macaca mulatta. The settings on record: rhesus monkey, in vivo, read-out: Vbeta.
Series [12] in a line: Cmax in monkey at 10 umol/kg, po administered in PEG400. On the set-up: dose 10 umol/kg, route oral. It is filed as ADME, organism-based, Macaca mulatta. The settings on record: rhesus monkey, in vivo.
The nature of series [13]: Oral bioavailability in monkey at 10 umol/kg administered in PEG400. It is filed as ADME, organism-based, Macaca mulatta. As to conditions: rhesus monkey, in vivo.
A short description of series [14]: Permeability across human Caco-2 cells. Type of series: ADME, cell-based.
Series [15] is filed under the species Rattus norvegicus. Nature of the series: Decrease in carrageenan-induced thermal hyperalgesia in Sprague-Dawley rat. It is filed as functional.
Series [16] concerns Rattus norvegicus. The experiment in a line: Decrease in carrageenan-induced thermal hyperalgesia in Sprague-Dawley rat at 100 umol/kg. It is filed as functional, organism-based.
Series [17] in a line: Ratio of drug level in brain to plasma in Sprague-Dawley rat. Type of series: ADME. As to conditions: read-out: BPR.
Series [18] can be described thus: Cmax in dog at 5 umol/kg, po administered in PEG400. The settings on record: in vivo.
Series [19] can be described thus: Oral bioavailability in dog at 5 umol/kg administered in PEG400. The settings on record: in vivo.
Series [20] is described as follows: Cmax in dog at 5 umol/kg, po administered in oleic acid/cremophor/PEG400 (80:10:10). The settings on record: in vivo.
Series [21] can be described thus: Oral bioavailability in dog at 5 umol/kg administered in oleic acid/cremophor/PEG400 (80:10:10). As to conditions: in vivo.

Sequence of Transient receptor potential cation channel subfamily V member 1 (Q8NER1 whole entry): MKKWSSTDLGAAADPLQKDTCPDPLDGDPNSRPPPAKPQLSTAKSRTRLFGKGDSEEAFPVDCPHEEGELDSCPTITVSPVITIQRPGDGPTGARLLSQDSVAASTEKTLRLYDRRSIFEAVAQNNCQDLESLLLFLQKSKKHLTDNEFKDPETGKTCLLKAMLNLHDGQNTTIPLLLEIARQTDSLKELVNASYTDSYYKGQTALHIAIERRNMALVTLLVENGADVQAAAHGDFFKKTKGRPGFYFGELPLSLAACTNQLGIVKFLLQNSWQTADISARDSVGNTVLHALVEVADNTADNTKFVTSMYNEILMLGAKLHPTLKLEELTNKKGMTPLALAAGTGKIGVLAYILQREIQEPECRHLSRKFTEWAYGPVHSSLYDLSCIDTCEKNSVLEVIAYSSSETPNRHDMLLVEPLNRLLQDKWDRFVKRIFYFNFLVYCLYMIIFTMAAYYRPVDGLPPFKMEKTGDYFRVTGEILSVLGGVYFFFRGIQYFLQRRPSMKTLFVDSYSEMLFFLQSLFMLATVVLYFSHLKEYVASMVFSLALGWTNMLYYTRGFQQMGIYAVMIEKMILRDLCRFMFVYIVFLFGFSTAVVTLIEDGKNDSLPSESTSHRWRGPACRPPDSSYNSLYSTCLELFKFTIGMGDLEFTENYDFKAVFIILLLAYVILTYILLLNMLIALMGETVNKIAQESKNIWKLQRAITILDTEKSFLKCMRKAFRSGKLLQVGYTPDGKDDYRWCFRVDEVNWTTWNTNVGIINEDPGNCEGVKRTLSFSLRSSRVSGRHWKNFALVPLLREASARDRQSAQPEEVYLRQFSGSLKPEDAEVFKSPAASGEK

What is called IC50 is the point on the concentration scale where inhibition reaches its midpoint. On to `O=C(Nc1cccc2[nH]ncc12)NC1CCc2cc(Br)ccc21` (stereo unspecified), for which, in series [1], the half-inhibitory concentration (IC50) turned out to be 9 nM.

Consider `CC(C)(C)c1cccc2c1CCC2NC(=O)Nc1cccc2[nH]ncc12` (stereo unspecified), for which the IC50 in series [1] came out at 14 nM.

With `Cc1cccc2c1CCC2NC(=O)Nc1cccc2[nH]ncc12` (stereo unspecified), the IC50 in series [1] stood at 46 nM.

Consider `O=C(Nc1cccc2[nH]ncc12)NC1CCc2ccccc21` (stereo unspecified), for which, in series [1], the IC50 is 151 nM.

Regarding `CC(C)(C#N)c1cccc2c1CCC2NC(=O)Nc1cccc2[nH]ncc12` (stereo unspecified), the IC50 in series [1] was determined as 19 nM.

Regarding `COc1ccc2c(c1)CCC2NC(=O)Nc1cccc2[nH]ncc12` (stereo unspecified), the IC50 in series [1] amounted to 40 nM.

With `CN1CCC(NC(=O)Nc2cccc3[nH]ncc23)c2ccc(C(F)(F)F)cc21` (stereo unspecified), the half-maximal inhibitory concentration (IC50) in [1] was 7 nM.

On to `O=C(Nc1cccc2[nH]ncc12)NC1CCc2c1cccc2N1CCC(C(F)(F)F)CC1` (stereo unspecified), for which, in [1], the IC50 came out at 7 nM.

For `O=C(Nc1cccc2[nH]ncc12)NC1CCc2cc(N3CCCCC3)ccc21` (stereo unspecified), the 50% inhibitory concentration (IC50) in [1] was 14 nM.

Take `Cc1ccc2c(c1)C(NC(=O)Nc1cccc3[nH]ncc13)CC2` (stereo unspecified): the concentration for half-maximal inhibition (IC50) in series [1] turned out to be 7200 nM.

Regarding `Cc1ccc2c(c1)CCC2NC(=O)Nc1cccc2[nH]ncc12` (stereo unspecified), in series [1], the IC50 was 11 nM.

On to `O=C(Nc1cccc2[nH]ncc12)NC1CCc2c1ccc(F)c2N1CCOCC1` (stereo unspecified), for which the IC50 in [1] was 5 nM.

Consider `O=C(Nc1cccc2[nH]ncc12)NC1CCc2c(C3CC3)cccc21` (stereo unspecified), for which, in series [1], the IC50 amounted to 5 nM.

For the compound `O=C(Nc1cccc2[nH]ncc12)NC1CCc2cccnc21` (stereo unspecified), the half-maximal inhibitory concentration (IC50) in [1] was determined as 1350 nM.

For `O=C(Nc1cccc2[nH]ncc12)NC1CCc2c1cccc2N1CCCCC1` (stereo unspecified), the IC50 in series [1] came to 10 nM.

As for `CC(C)(C)c1ccc2c(c1)CC(F)C2NC(=O)Nc1cccc2[nH]ncc12` (stereo unspecified), the IC50 in series [1] was found to be 35 nM.

Regarding `O=C(Nc1cccc2[nH]ncc12)NC1CCc2cc(Cl)ccc21` (stereo unspecified), the IC50 in series [1] amounted to 10 nM.

On to `O=C(Nc1cccc2[nH]ncc12)NC1CCc2cc(C(F)(F)F)ccc21` (stereo unspecified), for which, in series [1], the IC50 is 3 nM.

As to `CC(C)(CO)c1ccc2c(c1)CC[C@H]2NC(=O)Nc1cccc2[nH]ncc12`, the IC50 in [1] amounted to 127 nM.

With `CC(C)(C)c1ccc2c(c1)CC[C@H]2NC(=S)Nc1cccc2[nH]ncc12`, the half-maximal inhibitory concentration (IC50) in series [1] was determined as 97 nM.

`CC(C)(C)c1ccc2c(c1)CC(F)(F)C2NC(=O)Nc1cccc2[nH]ncc12` (stereo unspecified): in series [1], the IC50 worked out at 216 nM.

Turning to `CC(C)(C)c1ccc2c(c1)CC(NC(=O)Nc1cccc3[nH]ncc13)C2` (stereo unspecified), in series [1], the IC50 was determined as 10 nM.

Regarding `O=C(Nc1cccc2[nH]ncc12)NC1CCc2cc(F)ccc21` (stereo unspecified), the 50% inhibitory concentration (IC50) in series [1] turned out to be 52 nM.

As for `O=C(Nc1cccc2[nH]ncc12)NC1CCc2ncccc21` (stereo unspecified), the half-maximal inhibitory concentration (IC50) in [1] was 5820 nM.

As for `O=C(Nc1cccc2[nH]ncc12)NC1CCOc2cc(C(F)(F)F)ccc21` (stereo unspecified), the half-inhibitory concentration (IC50) in series [1] turned out to be 11 nM.

Broadly, the Solubility is the concentration that dissolves in the medium under given conditions. Usually half-life stands for the time in which the quantity being followed falls by half. One may read the Cmax as the peak of the concentration-time curve. The term bioavailability denotes dose-corrected exposure relative to a reference, in per cent. Usually Papp stands for a coefficient for how fast a substance crosses the barrier. The ED50 is the dose that gives a 50% effect, or the effect in half of the subjects. Consider `CC(C)(C)c1ccc2c(c1)CC[C@H]2NC(=O)Nc1cccc2[nH]ncc12` [ABT-102], for which the Solubility in [2] was 0.102 µg/mL (≈ 0.293 µM); in series [3] it was 0.0573 µg/mL (≈ 0.164 µM). The half-life was 1.7 h in [4], 1.8 h in series [8] and 1.9 h in series [10]. The Vd was found to be 2.8 L/kg in [5], 1.6 L/kg in [9] and 1.7 L/kg in [11]. In addition, the Cmax stood at 250 ng/mL in [6], 310 ng/mL in [12], 390 ng/mL in series [18] and 650 ng/mL in series [20]. Moreover, the bioavailability is 70% in series [7], 25% in series [13], 22% in series [19] and 60% in series [21]. Further, the apparent permeability coefficient (Papp) in series [14] is over 18 ×10⁻⁶ cm/s. It took a dose of 20 µmol/kg to reach the 50% effect level in the series filed under Rattus norvegicus [15] (ED50). Also, the result in the series with Rattus norvegicus [16] was Active. In addition, the Kp in series [17] is 0.32.

In the case of `O=C(Nc1cccc2[nH]ncc12)NC1CCc2c1cccc2N1CCOCC1` (stereo unspecified), the half-maximal inhibitory concentration (IC50) in [1] is 65 nM.

As to `O=C(Nc1cccc2[nH]ncc12)NC1CCc2cc(C3CC3)ccc21` (stereo unspecified), the half-inhibitory concentration (IC50) in [1] is 4 nM.

Regarding `Cc1cccc2c1C(NC(=O)Nc1cccc3[nH]ncc13)CC2` (stereo unspecified), the IC50 in series [1] was 595 nM.

For `O=C(Nc1cccc2[nH]ncc12)NC1CCc2c1cccc2C(F)(F)F` (stereo unspecified), in series [1], the IC50 is 10 nM.

With `O=C(Nc1cccc2[nH]ncc12)NC1CCc2c1cccc2N1CCCC1` (stereo unspecified), the IC50 in [1] turned out to be 21 nM.

On to `CC(C)(C)c1ccc2c(c1)CC[C@H]2N/C(=N/C#N)Nc1cccc2[nH]ncc12`, for which, in series [1], the concentration for half-maximal inhibition (IC50) was found to be 34 nM.
